From patent US10736902B2, “Method of treating triple negative breast cancer” (GEISTLICH PHARMA AG, priority 2016, dated 2020)
Like-named read-outs stand apart in the source and are kept apart here.

Experiments:
[1] = test system: ER negative breast cancer cells (BT-20 and MDA-MB-231) and ER positive cells (BT-474 and MCF-7); test: Apoptosis/necrosis (annexin V / propidium iodide) and ROS in breast cancer cells; assay type: cell-based; conditions: for dose dependence of cell death: ER-positive and ER-negative breast cancer cells, increasing concentrations, most pronounced with TNBC cells; for generation of ROS: substantially reduced by NAC, significantly increased with BSO
Experimental: Methods: Primary and metastatic ER negative breast cancer cells (BT-20 and MDA-MB-231) and ER positive cells (BT-474 and MCF-7) were separately treated with increasing concentrations of Taurolidine and 2250 as shown in FIG. 7A and FIG. 8A. Apoptosis and necrosis were evaluated based on phosphatidylserine externalization using annexin V and propidium iodide (PI). The contribution of caspases 3, 8 and 9 on apoptosis, and autophagy was evaluated by both flow cytometry and western blotting. The impact of reactive oxygen species (ROS) was evaluated using the radical scavenger agent n-acetylcysteine (NAC) and buthionine-sulfoximine (BSO), a glutathione-depleting agent. Necroptosis was evaluated using nescrostatin-1, a potent inhibitor of the process.

[2] = test system: human peripheral blood monocytes; test: Safety in non-neoplastic cells: cell death of monocytes; assay type: cell-based; conditions: for cell death in human peripheral blood monocytes: 100 microMol up to 5000 microMol; for effect on peripherally derived human monocytes: high doses (5 mM), after 24 hours (FIG. 7B)
[3] = Half-life in human fresh blood at 37° C.; assay type: in vitro ADME; conditions: for half-life: human, fresh whole blood
Experimental: The half-life of 2250 was measured in human fresh blood at 37° C.

[4] = Water solubility / isotonicity; assay type: physicochemical
[5] = Wound healing after administration during or after surgery; conditions: administered during surgery and immediately after surgery
[6] = test system: tumor stem cells; test: Tumor stem cell killing in tissue culture in vitro; assay type: cell-based

| Structure (SMILES) | dose dependence of cell death [1] | generation of ROS [1] | cell death in human peripheral blood monocytes [2] | effect on peripherally derived human monocytes [2] | Concentration of 2250 measured ([3]; human fresh blood, 37° C., 0-1 hours) | Concentration of 2250 measured ([3]; human fresh blood, 37° C., 2 hours) | half-life ([3]; human blood, read-out: half-life in human blood) | half-life ([3]; human fresh blood, 37° C., calculated from measured concentrations, read-out: half-life (calculated) (converted)) | solubility in water ([4]; no PVP necessary) | concentration of isotonic solution ([4]; solution) | effect on wound healing [5] | killing of tumor stem cells [6] | half-life ([3]; human blood, same test, read-out: half-life in human blood) | concentration effective at killing tumor stem cells ([6]; tissue culture in vitro) |
| --- | --- | --- | --- | --- | --- | --- | --- | --- | --- | --- | --- | --- | --- | --- |
| O=S1(=O)CCOCN1 [C-2250, Tetrahydro1,4,5-oxathiazin-4-dioxide] | Dose-dependent increases in cell death | induced generation of ROS | did not induce any significant cell death | no significant effect | 50 ppm | 47.7 ppm | > 24 h | ~40 h | very soluble in water | 3.2% | do not hinder wound healing |  |  |  |
| O=S1(=O)CCNCN1 [taurultam] |  |  |  |  |  |  |  |  |  |  |  | kill tumor stem cells |  |  |
| O=S1(=O)CCN(CN2CCS(=O)(=O)NC2)CN1 [taurolidine, reference compound] | Dose-dependent increases in cell death | induced generation of ROS | did not induce any significant cell death | no significant effect |  |  |  |  |  |  |  | kill tumor stem cells | ~0.5 h | 0.01 µg/mL |
